Measurements from patent publication US20230097866A1, “BACTERIAL TOPOISOMERASE INHIBITORS DERIVED FROM ISOMANNIDE” (Ohio State Innovation Foundation, priority 2020, published 2023).
In brackets after ≈: the same amount, converted by molar mass.

Columns and labels:
H37Rv (rpoB^S450L) = assay type: cell-based, Mycobacterium tuberculosis
H37Rv (gyrA^D94K) = assay type: cell-based, Mycobacterium tuberculosis
H37Rv (katG^del) = experiment: microbe, parasite or virus in culture; assay type: cell-based; details: Mycobacterium tuberculosis, microbroth dilution

## COc1ccc2ncc(F)c(CC[C@@]3(O)CO[C@@H]4[C@@H](NCc5ccc(Cl)c(Cl)c5)CO[C@@H]43)c2n1 [Compound 26, (3R,3aS,6S,6aR)-6-((3,4-dichlorobenzyl)amino)-3-(2-(3-fluoro-6-methoxy-1,5-napkthyridin-4-yl)ethyl)hexahydrofuro[3,2-b]-furan-3-ol]
H37Rv (rpoB^S450L)
  MIC H37Rv (rpoB^S450L): 1 µg/mL (≈ 1.97 µM)
H37Rv (gyrA^D94K)
  MIC H37Rv (gyrA^D94K): 2 µg/mL (≈ 3.93 µM)
H37Rv (katG^del)
  MIC: 1 µg/mL (≈ 1.97 µM)

## COc1ccc2ncc(F)c(CC[C@@]3(O)CO[C@@H]4[C@@H](NCc5ccc(C)cc5)CO[C@@H]43)c2n1 [Compound 25, (3R,3aS,6S,6aR)-3-(2-(3-fluora-6-methoxy-1,5-naphthyridin-4-yl)ethyl)-6-((4-methyllbenzyl)amino)hexahydrofuro[3,2-b]furan-3-ol]
H37Rv (rpoB^S450L)
  MIC H37Rv (rpoB^S450L): 4 µg/mL (≈ 8.82 µM)
H37Rv (gyrA^D94K)
  MIC H37Rv (gyrA^D94K): 16 µg/mL (≈ 35.3 µM)
H37Rv (katG^del)
  MIC: 4 µg/mL (≈ 8.82 µM)
